Experimental findings from patent US6610494B2, “Solid-phase activity assay for biologically active substance” (priority 1996, dated 2003) are described below.

In test [1] the target is T1, trypsin egg white inhibitor (ovomucoid) (Gallus gallus, UniProt P01005).
T1 construct: purchased Sigma Chemical Co. or Fisher Scientific Co
T1 sequence (P01005 25-210): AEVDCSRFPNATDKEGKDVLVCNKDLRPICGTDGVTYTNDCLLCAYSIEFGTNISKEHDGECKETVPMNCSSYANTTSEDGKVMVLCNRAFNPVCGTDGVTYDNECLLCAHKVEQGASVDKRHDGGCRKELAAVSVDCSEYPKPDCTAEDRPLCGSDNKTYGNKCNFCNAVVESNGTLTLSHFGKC
Briefly: BEISA: competition of unlabelled proteases with biotinylated trypsin for coated inhibitor. It counts as binding. Particulars: ovomucoid-coated plate. On the procedure:
The 96-well microtiter plate (Falcon 3911) was coated with trypsin egg white inhibitor (ovomucoid, 4 ug/100 ul/well) at […] overnight. The plate was washed once using PBST {[PBS, NaCl, 9.00; Na2HPO4, 1.15; NaH2PO4, 0.23 (g/l) pH 7.2] plus 0.05% Tween-20} and 200 ul of 5% skim milk was added to each well of the plate followed by incubation at 37° C. for 2 hours. The plate was rinsed twice with PBST and 50 ul of PBS was added to each well of the plate except for those in column one where 100 ul of PBS was added. Unlabelled trypsin (50 ul of 400 ug/ml) was added to the wells of the second column followed by successive double dilutions of trypsin in wells up to and including those in column 11. Biotinylated trypsin in PBS (50 ul of 1:3000 dilution of the stock to yield approximately 2 ug/100 ul/well) was added to each well except those in the first column followed by incubation at 37° C. for 1 hour. The final volume in each well was 100 ul. The blank set of wells with no trypsin (column 1) served as the negative control while the last set of wells (column 12) with biotinylated trypsin but no unlabelled trypsin served as the positive control. […] The absorbency was then read at 405 nm using a microplate reader (Bio-Rad laboratories Inc. Mississauga, ON, Canada, model 450). […]

For test [2], the system named is biotinylated α-casein. Put plainly: Solid phase protease activity assay using biotinylated casein. It counts as biochemical. The method, then:
Preparation of biotinylated casein: 12 mg α-casein in 1 ml of 0.1 M pH 7.2 phosphate-buffer saline [PBS, NaCl, 9.00; Na2HPO4, 1.15; NaH2PO4, 0.23 (g/l)] was allowed to react with 3.6 mg NHS-biotin in 150 ul DMSO for 2 hours at room temperature with gently shaking.
Assay procedure for protease activity using biotinylated casein: The microtitre plates except for the first column of 8 wells were coated using biotinylated α-casein in PBS (0.13 ug/well/100 ul) and incubated for 2 hours at 37° C. The plates were washed three times with 0.1 M PBST (PBS with 0.05% Tween-20). Different concentrations of the enzyme solution as indicated in FIGS. 12-14 (100 ul) were diluted with the appropriate buffer (see Table 2). They were added in triplicate to the wells of a plate followed by incubating in a humid atmosphere at 37° C. for 30 minutes. The plate was washed three times using PBST to terminate the protease reaction. A streptavidin-alkaline phosphatase solution (100 ul/well, 1:1000 dilution in bicarbonate buffer pH 9.5) was added to all wells in the plate except for the first column of 8 wells (as blank) and the plate was incubated at room temperature for 30 minutes. The blank set of wells contained only PBS, no added enzyme and no coating with biotinylated casein. The reaction was stopped by emptying and washing the plate six times with PBST. The pNPP substrate (100 ul/well, 1 mg/ml in 10% diethanolamine buffer pH9.8) was added to each well of the plate followed by incubation at room temperature for about 20 minutes. The absorbency was then read at 405 nm using a microplate reader (Bio-Rad laboratories, Ltd, Mississauga, ON, Canada; model 450). The best sensitivity was obtained when the maximum absorbency was around 2.0 optical density units.

Setting [3] is: optimal pH of each protease, 37° C., 30 minutes.

For trypsin, the “Concentration of trypsin that could be detected” value in test [1] lay within 0.1 to 1.0 µg/mL. In addition, the “Sensitivity: amount of enzyme required to produce a 10% decrease in maximal absorbency” value in test [2] (0.5 hour hydrolysis) came out at 30 ng/100 ul. Further, in test [2] (setting [3]), the “Hydrolysis of biotin-casein by proteases” value was “Yes” and the “Sensitivity (amount of enzyme required to hydrolyse 10% of the biotinylated α-casein)” value is listed as 30 ng/100 ul/sample.
